# According to patent US6962937B2, “Imidazolidine derivatives, their preparation and their use” (Aventis Pharma Deutschland GmbH, priority 2001, dated 2005):
# Where a name gives a salt, the structure may show the parent alone.
# Target: T1, interaction between VCAM-1 and VLA-4 (Homo sapiens, UniProt P05556+P13612)
# T1 construct: supplied in their natural form as surface molecules on human U937 cells; host or cells: U937 cells (endogenous VLA-4); The partner hVCAM-1(1-3)-IgG was made in house in transfected COS cells (ATCC CRL1651) and used as culture supernatant
# Test: U937/VCAM-1 cell adhesion test (adhesion of U937 cells to hVCAM-1 (1-3)-IgG)
# Assay type: cell-based
# Details: inhibition of adhesion of human U937 cells (ATCC CRL 1593) to hVCAM-1 (1-3)-IgG
# From the text: A) U937/VCAM-1 Cell Adhesion Test (Assay for Measuring the Adhesion of U937 Cells (ATCC CRL 1593) to hVCAM-1 (1-3)-IqG)
# The assay described below which is specific for the interaction between VCAM-1 and VLA-4, is used as the method for testing the activity of the compounds of the formula I on this interaction. The cellular binding partners, that is the VLA-4 integrins, are supplied in their natural form as surface molecules on human U937 cells (ATCC CRL 1593) which belong to the leukocyte group. The specific binding partners employed are recombinantly prepared soluble fusion proteins which consist of the extracytoplasmic domain of human VCAM-1 and the constant region of a human immunoglobulin of the IgG1 subclass.
# 1. Preparation of Human VCAM-1 (1-3)-IqG and Human CD4-IgG
# A gene construct for expressing the extracellular domain of human VCAM-1 linked to the gene sequence for the heavy chain of human immunoglobulin IgG1 (hinge, CH2 and CH3 regions) (from Dr. Brian Seed, Massachusetts General Hospital, Boston, USA; cf. Damle and Aruffo, Proc. Natl. Acad. Sci. USA, 1991, 88:6403) was employed. The soluble fusion protein hVCAM-1 (1-3)-IgG contained the three aminoterminal extracellular immunoglobulin-like domains of human VCAM-1 (Damle and Aruffo, Proc. Natl. Acad. Sci. USA, 1991, 88:6403). CD4-IgG (Zettimeissl et al., DNA and Cell Biology, 1990, 9:347) was used as the fusion protein for negative controls. The recombinant proteins were expressed as soluble proteins following the DEAE/dextran-mediated transfection of DNA into COS cells (ATCC CRL1651) using standard procedures (Ausubel et a., Current protocols in molecular biology, John Wiley & Sons, Inc., 1994).
# 2. Assay for Measuring the Adhesion of U937 Cells to hVCAM-1 (1-3)-IgG […]
# 2.6 U937 cells were incubated in Fc receptor blocking buffer for 20 minutes and then pipetted in at a concentration of 1×10^6/mL and in a quantity of 100 μL per well (final volume: 125 μL/well). […]
# T1 sequence (P13612 34-1032): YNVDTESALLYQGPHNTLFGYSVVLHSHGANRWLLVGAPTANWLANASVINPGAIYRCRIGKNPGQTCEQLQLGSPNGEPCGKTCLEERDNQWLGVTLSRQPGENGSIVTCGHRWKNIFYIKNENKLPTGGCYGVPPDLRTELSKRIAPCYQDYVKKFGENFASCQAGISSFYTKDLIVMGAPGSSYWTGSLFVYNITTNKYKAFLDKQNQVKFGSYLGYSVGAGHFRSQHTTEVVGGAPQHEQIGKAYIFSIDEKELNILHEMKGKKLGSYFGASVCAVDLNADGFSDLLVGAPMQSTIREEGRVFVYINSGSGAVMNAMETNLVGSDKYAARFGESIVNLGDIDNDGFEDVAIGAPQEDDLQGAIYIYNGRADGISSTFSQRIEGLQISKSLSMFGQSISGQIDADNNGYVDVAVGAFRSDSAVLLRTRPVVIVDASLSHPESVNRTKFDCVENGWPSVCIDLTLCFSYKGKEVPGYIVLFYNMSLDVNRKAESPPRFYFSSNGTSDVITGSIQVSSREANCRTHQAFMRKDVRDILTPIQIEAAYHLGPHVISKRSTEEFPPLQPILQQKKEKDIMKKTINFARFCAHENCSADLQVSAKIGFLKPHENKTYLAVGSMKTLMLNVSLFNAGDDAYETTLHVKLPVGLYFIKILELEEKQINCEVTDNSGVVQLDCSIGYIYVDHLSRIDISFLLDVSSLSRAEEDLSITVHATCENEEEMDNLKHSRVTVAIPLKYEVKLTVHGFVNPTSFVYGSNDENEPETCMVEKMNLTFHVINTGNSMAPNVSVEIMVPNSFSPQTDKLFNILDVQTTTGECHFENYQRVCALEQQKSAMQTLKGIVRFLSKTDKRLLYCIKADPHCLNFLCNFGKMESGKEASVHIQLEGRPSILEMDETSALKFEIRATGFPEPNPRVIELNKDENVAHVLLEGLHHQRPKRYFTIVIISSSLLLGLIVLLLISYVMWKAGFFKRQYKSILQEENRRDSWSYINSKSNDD
# T1 sequence (P05556 21-798): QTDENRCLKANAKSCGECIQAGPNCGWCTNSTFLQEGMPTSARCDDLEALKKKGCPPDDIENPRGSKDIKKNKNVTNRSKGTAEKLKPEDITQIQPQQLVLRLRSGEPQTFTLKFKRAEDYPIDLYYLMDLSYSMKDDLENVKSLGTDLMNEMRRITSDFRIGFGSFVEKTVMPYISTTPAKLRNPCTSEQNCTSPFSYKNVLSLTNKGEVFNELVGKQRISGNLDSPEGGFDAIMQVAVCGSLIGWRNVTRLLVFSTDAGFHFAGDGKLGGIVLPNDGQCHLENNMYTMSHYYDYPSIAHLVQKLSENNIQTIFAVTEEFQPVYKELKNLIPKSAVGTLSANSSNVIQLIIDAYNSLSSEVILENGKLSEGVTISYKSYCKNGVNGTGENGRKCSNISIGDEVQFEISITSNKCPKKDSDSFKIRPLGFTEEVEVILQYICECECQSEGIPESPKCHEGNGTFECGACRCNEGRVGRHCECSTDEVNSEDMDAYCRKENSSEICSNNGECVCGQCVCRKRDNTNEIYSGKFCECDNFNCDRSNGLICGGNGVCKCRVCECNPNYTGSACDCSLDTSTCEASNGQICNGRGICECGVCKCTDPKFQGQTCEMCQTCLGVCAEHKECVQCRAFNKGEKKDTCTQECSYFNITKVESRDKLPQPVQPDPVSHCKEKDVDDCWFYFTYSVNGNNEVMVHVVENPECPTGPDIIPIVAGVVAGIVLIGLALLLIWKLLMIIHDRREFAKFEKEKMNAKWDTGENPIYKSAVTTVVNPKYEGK
row,IC50 [nM],SMILES
1,66.2,"COc1cc(CN2C(=O)N([C@H](CN[C@@H](CC(=O)O)c3ccccc3)CC3CC3)C(=O)C2(C)C)ccc1NC(=O)Nc1ccccc1C [Example 6, (S)-3-((S)-2-(4,4-Dimethyl-3-(4-(3-(2-methylphenyl)ureido)-3-methoxybenzyl)-2,5-dioxoimidazolidin-1-yl)-3-cyclopropylpropylamino)-3-phenylpropionic acid hydrochloride]"
2,8.2,"COc1cc(CN2C(=O)N([C@H](CN[C@@H](CC(=O)O)c3ccc(OC)c(OC)c3)CC3CC3)C(=O)C2(C)C)ccc1NC(=O)Nc1ccccc1C [Example 14, (S)-3-((S)-2-(4,4-Dimethyl-3-(4-(3-(2-methylphenyl)ureido)-3-methoxybenzyl)-2,5-dioxoimidazolidin-1-yl)-3-cyclopropylpropylamino)-3-(3,4-dimethoxyphenyl)propionic acid hydrochloride]"
3,24.4,"COc1cc(CN2C(=O)N([C@H](CN[C@@H](CC(=O)O)c3ccc4c(c3)OCO4)CC3CC3)C(=O)C2(C)C)ccc1NC(=O)Nc1ccccc1C [Example 17, (S)-3-((S)-2-(4,4-Dimethyl-3-(4-(3-(2-methylphenyl)ureido)-3-methoxybenzyl)-2,5-dioxoimidazolidin-1-yl)-3-cyclopropylpropylamino)-3-(3,4-methylenedioxyphenyl)propionic acid hydrochloride]"
